{"source": "PubChem BioAssay AID624339", "about": "(Sanford-Burnham Center for Chemical Genomics, 2012)", "note": "Calls of active or inactive are those of the source. The rule behind the calls is not given here."}
{"tested_on": "PAMPA artificial membrane permeability, pH 7.4", "test": "PAMPA permeability at pH 7.4 – biophysical, ADME assay (AID 624339)", "settings": "at 100 µM; stronger effect = higher value"}
{"molecule": "c1ccc2c(Nc3nnc(-c4ccncc4)s3)cccc2c1", "permeability Pe": "211 10-6 cm/s"}
{"molecule": "CCN1CCN(c2nc3ccccc3nc2C(C#N)C(=O)OC2CCCCC2)CC1", "note": "(stereo not drawn)", "permeability Pe": "2130 10-6 cm/s"}
{"molecule": "O=c1c2ccccc2[se]n1-c1ccccc1", "permeability Pe": "448 10-6 cm/s"}
{"molecule": "O=C(O)c1cccnc1SCCc1ccccc1", "permeability Pe": "17 10-6 cm/s"}
{"molecule": "O=C(CCNS(=O)(=O)c1cccc2nsnc12)N1CCN(c2ccccn2)CC1", "permeability Pe": "143 10-6 cm/s"}
{"molecule": "N#Cc1ccccc1CSc1nc2ncc(Br)cc2[nH]1", "permeability Pe": "144 10-6 cm/s"}
{"molecule": "O=C(COC(=O)C12CC3CC(CC(C3)C1)C2)NCc1ccco1", "permeability Pe": "195 10-6 cm/s"}
{"molecule": "O=C(CSc1cccc2cccnc12)N1CCCC1", "permeability Pe": "101 10-6 cm/s"}
{"molecule": "CCCOc1ccc(-c2nc(OC)c3ccccc3n2)cc1", "permeability Pe": "26 10-6 cm/s"}
{"molecule": "O=C1CCCC2=C1C1(CCCC1)N=C(Nc1nc3ccccc3o1)N2", "permeability Pe": "436 10-6 cm/s"}
{"molecule": "CCCC(=O)Nc1cccc(NC(=O)c2ccccc2Br)c1", "permeability Pe": "190 10-6 cm/s"}
{"molecule": "O=S1(=O)Nc2c(ccc3cccnc23)-c2ccccc21", "permeability Pe": "75 10-6 cm/s"}
{"molecule": "Cc1ccnc(NC(=O)CCCOc2cc(=O)n(C)c3ccccc23)c1", "permeability Pe": "510 10-6 cm/s"}
{"molecule": "Cc1ccc(S(=O)(=O)NCc2ccc(C(=O)NCCN(Cc3ccccc3)C(C)C)cc2)cc1", "permeability Pe": "1480 10-6 cm/s"}
{"molecule": "O=C(O)c1ccc(N2C(=O)/C(=C/c3ccc(-c4ccc([N+](=O)[O-])cc4)o3)C=C2c2ccccc2)cc1", "permeability Pe": "< 0.8 10-6 cm/s (inactive)"}
{"molecule": "O=C1NCCCc2c1oc1ccc(O)cc21", "permeability Pe": "13 10-6 cm/s"}
{"molecule": "Cn1nnnc1Sc1ncnc2scc(-c3ccccc3)c12", "permeability Pe": "973 10-6 cm/s"}
{"molecule": "c1ccc(-c2nnc(N3CCOCC3)nc2-c2ccccc2)cc1", "permeability Pe": "1490 10-6 cm/s"}
{"molecule": "Cc1nc(SCc2nc3ccccc3[nH]2)c2oc3ccccc3c2n1", "permeability Pe": "720 10-6 cm/s"}
{"molecule": "NC(=O)C1CCN(c2nc(-c3ccc(Br)cc3)cs2)CC1", "permeability Pe": "284 10-6 cm/s"}
{"molecule": "CC(=O)c1ccc(N2CCN(S(=O)(=O)c3ccc4c(c3)CC(=O)N4)CC2)cc1", "permeability Pe": "194 10-6 cm/s"}
{"molecule": "CCOc1ccc(-c2nc(-c3ccncc3)no2)cc1OCC", "permeability Pe": "1030 10-6 cm/s"}
{"molecule": "COc1ccc(OC)c(-c2nnc3n2N=C(c2ccc(OC)c(OC)c2)CS3)c1", "permeability Pe": "590 10-6 cm/s"}
{"molecule": "CN(C)c1oc(-c2ccc(OCc3ccc(Cl)cc3)cc2)nc1C#N", "permeability Pe": "208 10-6 cm/s"}
{"molecule": "Cc1ccc(-n2c(N)c(C#N)c(-c3ccccc3)c(C#N)c2=O)cc1", "permeability Pe": "67 10-6 cm/s"}
{"molecule": "O=S(=O)(NC1CCCCC1N1CCOCC1)c1ccc(Cl)cc1", "note": "(stereo not drawn)", "permeability Pe": "815 10-6 cm/s"}
{"molecule": "O=c1[nH]c2c(s1)C(c1cccnc1)C1C3CCC(C3)C1S2", "note": "(stereo not drawn)", "permeability Pe": "830 10-6 cm/s"}
{"molecule": "O=C(O)c1ccccc1OCc1ccccc1Br", "permeability Pe": "22 10-6 cm/s"}
{"molecule": "CS(=O)(=O)c1ccc(C(=O)OCC(=O)NC23CC4CC(CC(C4)C2)C3)cc1[N+](=O)[O-]", "permeability Pe": "443 10-6 cm/s"}
{"molecule": "CCCn1ncc(CN2CCCC(C(=O)c3cccc(OC(C)C)c3)C2)c1C", "note": "(stereo not drawn)", "permeability Pe": "1310 10-6 cm/s"}
{"molecule": "CCOC(=O)C(C)Oc1cccc2c(=O)n(CC(=O)Nc3ccc4c(c3)OCCO4)ccc12", "note": "(stereo not drawn)", "permeability Pe": "441 10-6 cm/s"}
{"molecule": "Cc1ccc(N2CCN(S(=O)(=O)N3CCCCC3)CC2)c(C)c1", "permeability Pe": "263 10-6 cm/s"}
{"molecule": "COc1ccc(CNCc2cccc3ccccc23)cc1", "permeability Pe": "1130 10-6 cm/s"}
{"molecule": "CCCc1nc2c(=O)n(C)c(=O)nc-2n(C)n1", "permeability Pe": "0 10-6 cm/s (inactive)"}
{"molecule": "CCc1oc2ccccc2c1C(=O)c1cc(Br)c(O)c(Br)c1", "permeability Pe": "71 10-6 cm/s"}
{"molecule": "Cc1cc(C)nc(-n2nc(C)c(Sc3ccc(F)cc3)c2N)n1", "permeability Pe": "1020 10-6 cm/s"}
{"molecule": "O=C1C2CC=CCC2C(=O)N1c1n[nH]c(-c2ccccc2)n1", "note": "(stereo not drawn)", "permeability Pe": "63 10-6 cm/s"}
{"molecule": "COc1cc(NC(=O)c2cc(C3CC3)on2)c(OC)cc1Cl", "permeability Pe": "720 10-6 cm/s"}
{"molecule": "CCCN(CCC)CCNC(=O)C1CCN(Cc2nc(-c3ccc(Cl)cc3)oc2C)CC1", "permeability Pe": "1860 10-6 cm/s"}
{"molecule": "Brc1ccc2c(c1)CN1CCCC1=N2", "permeability Pe": "786 10-6 cm/s"}
{"molecule": "CCOc1ccc(NC(=S)N2CCC(C(O)(c3ccccc3)c3ccccc3)CC2)cc1", "permeability Pe": "682 10-6 cm/s"}
{"molecule": "COc1ccc(N(C(=O)CCl)C(C(=O)NCCc2ccccc2)c2cccs2)cc1Cl", "note": "(stereo not drawn)", "permeability Pe": "568 10-6 cm/s"}
{"molecule": "Oc1cc(O)cc(/C=C/c2ccc(O)c(O)c2)c1", "permeability Pe": "1.2 10-6 cm/s (inactive)"}
{"molecule": "CC1CCCN(C(C(=O)Nc2ccc3c(c2)OCCO3)c2ccccc2)C1", "note": "(stereo not drawn)", "permeability Pe": "2010 10-6 cm/s"}
{"molecule": "COc1ccc(C2c3c(ncn(CCN4CCOCC4)c3=N)Oc3ccc4ccccc4c32)cc1OC", "note": "(stereo not drawn)", "permeability Pe": "1440 10-6 cm/s"}
{"molecule": "Cc1cc(C)n(-c2nc(NCCCO)c3c4c(sc3n2)CCCC4)n1", "permeability Pe": "1130 10-6 cm/s"}
{"molecule": "Brc1cc2c(cc1C1Nc3ccccc3C3C=CCC31)OCO2", "note": "(stereo not drawn)", "permeability Pe": "37 10-6 cm/s"}
{"molecule": "Cc1ccc(NC(=O)CCC(=O)N/N=C/c2ccc([N+](=O)[O-])o2)cc1C", "permeability Pe": "37 10-6 cm/s"}
{"molecule": "CN(C)c1nc(N)nc(CSc2nnnn2-c2cccc3ccccc23)n1", "permeability Pe": "268 10-6 cm/s"}
{"molecule": "Cc1ccc(NS(=O)(=O)c2ccc3c(c2)CCC(=O)N3)cc1C", "permeability Pe": "622 10-6 cm/s"}
{"molecule": "CC(C)C(=O)NC(c1ccco1)c1ccc2cccnc2c1O", "note": "(stereo not drawn)", "permeability Pe": "286 10-6 cm/s"}
{"molecule": "Cc1cc(-c2nnc3n2CCCCC3)c(C)n1-c1ccccc1", "permeability Pe": "393 10-6 cm/s"}
{"molecule": "O=C(c1ccccn1)N(Cc1cccs1)C1(C(=O)NC2CCCCC2)CCCCC1", "permeability Pe": "1580 10-6 cm/s"}
{"molecule": "COc1ccccc1N(/N=C1\\Sc2ccccc2C1=O)C(C)=O", "permeability Pe": "831 10-6 cm/s"}
{"molecule": "c1ccc(CC2CCN(c3ncnc4sccc34)CC2)cc1", "permeability Pe": "1020 10-6 cm/s"}
{"molecule": "N#C/C(=C\\c1ccc([N+](=O)[O-])o1)c1nc2ccccc2[nH]1", "permeability Pe": "145 10-6 cm/s"}
{"molecule": "COc1ccc(S(=O)(=O)N2CCN(S(=O)(=O)c3ccc4c(c3)OCCO4)CC2)cc1", "permeability Pe": "562 10-6 cm/s"}
{"molecule": "O=C(COc1ccccc1Br)NCCc1nc2ccccc2[nH]1", "permeability Pe": "795 10-6 cm/s"}
{"molecule": "COc1nc(-c2ccccc2)nnc1-c1ccccc1", "permeability Pe": "1240 10-6 cm/s"}
{"molecule": "O=C(O)CCC(NS(=O)(=O)c1ccc(-c2ccccc2)cc1)C(=O)O", "note": "(stereo not drawn)", "permeability Pe": "< 0.4 10-6 cm/s (inactive)"}
{"molecule": "CCCN1CNc2c(c(=O)[nH]c(=S)n2CCc2ccc(OC)c(OC)c2)C1", "permeability Pe": "75 10-6 cm/s"}
{"molecule": "COc1ccc(OC)c(S(=O)(=O)Nc2cnc3ccccc3c2)c1", "permeability Pe": "706 10-6 cm/s"}
{"molecule": "COc1ccc(S(=O)(=O)n2nc(OC(=O)c3ccccc3)cc2N)cc1", "permeability Pe": "459 10-6 cm/s"}
{"molecule": "COC(=O)c1ccccc1NC(=O)c1ccc(F)cc1", "permeability Pe": "629 10-6 cm/s"}
{"molecule": "C=CCn1c(SCC(=O)c2ccc(O)c(O)c2)nnc1-c1ccccc1OC", "permeability Pe": "88 10-6 cm/s"}
{"molecule": "Cn1cnc([N+](=O)[O-])c1Sc1ncnc2nc[nH]c12", "permeability Pe": "3 10-6 cm/s (inactive)"}
{"molecule": "CN1CSC(=S)N(C)C1", "permeability Pe": "18 10-6 cm/s"}
{"molecule": "CCc1nnc(NC(=O)c2ccc(NS(=O)(=O)c3ccccc3)cc2)s1", "permeability Pe": "163 10-6 cm/s"}
{"molecule": "C/C=C/Cn1c(SCCCc2ccccc2)nc2c1c(=O)[nH]c(=O)n2C", "permeability Pe": "1340 10-6 cm/s"}
{"molecule": "COc1ccc(CSc2nc(C)cc(=O)[nH]2)cc1", "permeability Pe": "165 10-6 cm/s"}
{"molecule": "O=c1c(O)c(-c2cc(O)c(O)c(O)c2)oc2cc(O)cc(O)c12", "permeability Pe": "1.7 10-6 cm/s (inactive)"}
{"molecule": "Cc1cc(C(=O)CN2C(=O)CCC2=O)c(C)n1Cc1ccccc1", "permeability Pe": "250 10-6 cm/s"}
{"molecule": "Cc1cccc(-n2cnc3cc(C(=O)N4CCCCC4)ccc32)c1", "permeability Pe": "748 10-6 cm/s"}
{"molecule": "O=c1oc2c(O)c(O)cc3c(=O)oc4c(O)c(O)cc1c4c23", "permeability Pe": "3.1 10-6 cm/s (inactive)"}
{"molecule": "Cc1cc2c(s1)c1cnn(Cc3ccccc3F)c(=O)c1n2C", "permeability Pe": "913 10-6 cm/s"}
{"molecule": "CCCc1cc(C(=O)N(C2CCCCC2)C2CCCCC2)no1", "permeability Pe": "0.01 10-6 cm/s (inactive)"}
{"molecule": "Cc1ccc(C)c(OCCn2cc(C(=O)O)c3ccccc32)c1", "permeability Pe": "256 10-6 cm/s"}
{"molecule": "O=[N+]([O-])c1ccc(CN2CCOCCOCCN(Cc3ccc([N+](=O)[O-])cc3)CCOCC2)cc1", "permeability Pe": "1080 10-6 cm/s"}
{"molecule": "O=c1[nH]c(SCc2ccc(Cl)cc2)nc2c1CCC2", "permeability Pe": "631 10-6 cm/s"}
{"molecule": "Cc1ccc(S(=O)(=O)n2c(N)nc3ccccc32)cc1", "permeability Pe": "370 10-6 cm/s"}
{"molecule": "COc1ccc(C2CC(c3ccccc3)=NN2c2ccc(S(N)(=O)=O)cc2)cc1", "note": "(stereo not drawn)", "permeability Pe": "278 10-6 cm/s"}
{"tested_on": "PAMPA artificial membrane permeability, pH 7.4", "test": "PAMPA permeability at pH 7.4 – biophysical, ADME assay (AID 624339)", "settings": "at 100 µM; with 20% ACN; stronger effect = higher value"}
{"molecule": "Cc1ccc(C(=O)n2c3ccccc3c3ccccc32)cc1", "permeability Pe": "352 10-6 cm/s"}
{"molecule": "COc1ccc(Sc2ccc(NC(=O)c3ccccc3Cl)cc2C#N)cc1", "permeability Pe": "487 10-6 cm/s"}
{"molecule": "CSc1nc(-c2ccc(C)cc2)nc(C(Cl)Cl)n1", "permeability Pe": "154 10-6 cm/s"}
{"molecule": "Cc1ccc(C)c(NS(=O)(=O)c2cc(C(=O)Nc3ccccc3-c3ccccc3)ccc2Cl)c1", "permeability Pe": "253 10-6 cm/s"}
{"molecule": "COc1cccc(-c2nc(-c3ccc(NC(=O)Cc4ccccc4OC)cc3)no2)c1", "permeability Pe": "863 10-6 cm/s"}
{"molecule": "Cc1ccccc1N1CCN(c2ncnc3c2cnn3Cc2ccc(Cl)cc2)CC1", "permeability Pe": "1100 10-6 cm/s"}
{"molecule": "CN(C)C1=C(Cl)C(=O)N(c2ccc(Cl)c(Cl)c2)C1=O", "permeability Pe": "381 10-6 cm/s"}
